Measurements: ChEMBL document CHEMBL1201862, “PubChem BioAssay data set” (2004)
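Test compounds were applied to cells in 96-well plates for 48 hours at 5 doses. At the GI50, growth is halved.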 Calls of active or inactive are those of the source. Rule as the data show it: active = GI50 up to about 1.1 µM and inactive = higher.

Legend:
Assay in all cases: NCI-60 cell line screen, 48 h
OVCAR-3 = system: OVCAR-3
OVCAR-5 = system: OVCAR-5
CAKI-1 = system: CAKI-1
A549 = system: A549
SN12C = system: SN12C
SF-539 = system: SF-539
Hs-578T = system: Hs-578T
NCI-H460 = system: NCI-H460
LOX IMVI = system: LOX IMVI
OVCAR-4 = system: OVCAR-4
T47D = system: T47D
SK-MEL-5 = system: SK-MEL-5
U-251 = system: U-251
Malme-3M = system: Malme-3M
SF-295 = system: SF-295
SK-MEL-28 = system: SK-MEL-28
M14 = system: M14
MDA-N = system: MDA-N
SK-OV-3 = system: SK-OV-3
HT-29 = system: HT-29
UACC-257 = system: UACC-257
IGROV-1 = system: IGROV-1
HL-60 = system: HL-60
KM12 = system: KM12
UACC-62 = system: UACC-62
PC-3 = system: PC-3
NCI-H23 = system: NCI-H23
BT-549 = system: BT-549
SNB-19 = system: SNB-19
MCF7 = system: MCF7
NCI-H226 = system: NCI-H226
SNB-75 = system: SNB-75
SW-620 = system: SW-620
K562 = system: K562
UO-31 = system: UO-31
HOP-92 = system: HOP-92
OVCAR-8 = system: OVCAR-8
SF-268 = system: SF-268
HCT-15 = system: HCT-15
ACHN = system: ACHN
HCT-116 = system: HCT-116
SK-MEL-2 = system: SK-MEL-2
SR = system: SR
NCI-H522 = system: NCI-H522
DU-145 = system: DU-145
786-0 = system: 786-0
HOP-62 = system: HOP-62
COLO 205 = system: COLO 205
MDA-MB-435 = system: MDA-MB-435
A498 = system: A498
MDA-MB-231 = system: MDA-MB-231
EKVX = system: EKVX
NCI/ADR-RES = system: NCI/ADR-RES
RXF 393 = system: RXF 393
MOLT-4 = system: MOLT-4
RPMI-8226 = system: RPMI-8226
CCRF-CEM = system: CCRF-CEM
TK-10 = system: TK-10
HCC 2998 = system: HCC 2998

SMILES: COC(=O)CC[C@@H](C)[C@H]1CC[C@H]2[C@@H]3CC[C@@H]4C[C@H](O)CC[C@]4(C)[C@H]3CC[C@]12C
- GI50 (OVCAR-3): 18.1 µM (inactive)
- GI50 (OVCAR-5): 19.8 µM (inactive)
- GI50 (CAKI-1): 17.9 µM (inactive)
- GI50 (A549): 18.5 µM (inactive)
- GI50 (SN12C): 18.6 µM (inactive)
- GI50 (SF-539): 18.5 µM (inactive)
- GI50 (Hs-578T): 23.1 µM (inactive)
- GI50 (NCI-H460): 19.3 µM (inactive)
- GI50 (LOX IMVI): 18.7 µM (inactive)
- GI50 (OVCAR-4): 19 µM (inactive)
- GI50 (T47D): 19.4 µM (inactive)
- GI50 (SK-MEL-5): 16.9 µM (inactive)
- GI50 (U-251): 20.7 µM (inactive)
- GI50 (Malme-3M): 17 µM (inactive)
- GI50 (SF-295): 18.2 µM (inactive)
- GI50 (SK-MEL-28): 19 µM (inactive)
- GI50 (M14): 18.5 µM (inactive)
- GI50 (MDA-N): 19.1 µM (inactive)
- GI50 (SK-OV-3): 20.8 µM (inactive)
- GI50 (HT-29): 16.6 µM (inactive)
- GI50 (UACC-257): 14.8 µM (inactive)
- GI50 (IGROV-1): 17.2 µM (inactive)
- GI50 (HL-60): 15 µM (inactive)
- GI50 (KM12): 17.5 µM (inactive)
- GI50 (UACC-62): 17.9 µM (inactive)
- GI50 (PC-3): 17.3 µM (inactive)
- GI50 (NCI-H23): 16.5 µM (inactive)
- GI50 (BT-549): 16.2 µM (inactive)
- GI50 (SNB-19): 21.6 µM (inactive)
- GI50 (MCF7): 18.3 µM (inactive)
- GI50 (NCI-H226): 20.3 µM (inactive)
- GI50 (SNB-75): 19.1 µM (inactive)
- GI50 (SW-620): 29.6 µM (inactive)
- GI50 (K562): 10.7 µM (inactive)
- GI50 (UO-31): 19 µM (inactive)
- GI50 (HOP-92): 13.8 µM (inactive)
- GI50 (OVCAR-8): 19 µM (inactive)
- GI50 (SF-268): 21.6 µM (inactive)
- GI50 (HCT-15): 17.1 µM
- GI50 (ACHN): 20.7 µM (inactive)
- GI50 (HCT-116): 17.1 µM (inactive)
- GI50 (SK-MEL-2): 18.7 µM (inactive)
- GI50 (SR): 14.9 µM (inactive)
- GI50 (NCI-H522): 18.3 µM (inactive)
- GI50 (DU-145): 17.7 µM (inactive)
- GI50 (786-0): 18.5 µM (inactive)
- GI50 (HOP-62): 18.4 µM (inactive)
- GI50 (COLO 205): 19.5 µM (inactive)
- GI50 (MDA-MB-435): 16.7 µM (inactive)
- GI50 (A498): 20.5 µM (inactive)
- GI50 (MDA-MB-231): 17.8 µM (inactive)
- GI50 (EKVX): 19.2 µM (inactive)
- GI50 (NCI/ADR-RES): 19 µM (inactive)
- GI50 (RXF 393): 18.2 µM (inactive)
- GI50 (MOLT-4): 14.5 µM (inactive)
- GI50 (RPMI-8226): 11.7 µM (inactive)
- GI50 (CCRF-CEM): 18.2 µM (inactive)
- GI50 (TK-10): 20.3 µM (inactive)

SMILES: O=C(O)c1ccc2c(c1C(=O)O)C(=O)OC2(c1ccc(O)cc1)c1ccc(O)cc1
- GI50 (OVCAR-3): > 100 µM (inactive)
- GI50 (OVCAR-5): > 100 µM (inactive)
- GI50 (CAKI-1): > 100 µM (inactive)
- GI50 (A549): > 100 µM (inactive)
- GI50 (SN12C): > 100 µM (inactive)
- GI50 (SF-539): > 100 µM (inactive)
- GI50 (Hs-578T): > 100 µM (inactive)
- GI50 (NCI-H460): > 100 µM (inactive)
- GI50 (LOX IMVI): > 100 µM (inactive)
- GI50 (OVCAR-4): > 100 µM (inactive)
- GI50 (T47D): > 100 µM (inactive)
- GI50 (SK-MEL-5): > 100 µM (inactive)
- GI50 (U-251): > 100 µM (inactive)
- GI50 (Malme-3M): > 100 µM (inactive)
- GI50 (SF-295): > 100 µM (inactive)
- GI50 (SK-MEL-28): > 100 µM (inactive)
- GI50 (M14): > 100 µM (inactive)
- GI50 (MDA-N): > 100 µM (inactive)
- GI50 (SK-OV-3): > 100 µM (inactive)
- GI50 (HT-29): > 100 µM (inactive)
- GI50 (UACC-257): > 100 µM (inactive)
- GI50 (IGROV-1): > 100 µM (inactive)
- GI50 (HL-60): > 100 µM (inactive)
- GI50 (KM12): > 100 µM (inactive)
- GI50 (UACC-62): > 100 µM (inactive)
- GI50 (PC-3): > 100 µM (inactive)
- GI50 (NCI-H23): > 100 µM (inactive)
- GI50 (BT-549): > 100 µM (inactive)
- GI50 (SNB-19): > 100 µM (inactive)
- GI50 (MCF7): > 100 µM (inactive)
- GI50 (NCI-H226): > 100 µM (inactive)
- GI50 (SNB-75): > 100 µM (inactive)
- GI50 (SW-620): > 100 µM (inactive)
- GI50 (K562): > 100 µM (inactive)
- GI50 (UO-31): > 100 µM (inactive)
- GI50 (HOP-92): > 100 µM (inactive)
- GI50 (OVCAR-8): > 100 µM (inactive)
- GI50 (SF-268): > 100 µM (inactive)
- GI50 (HCT-15): > 100 µM
- GI50 (ACHN): > 100 µM (inactive)
- GI50 (HCT-116): > 100 µM (inactive)
- GI50 (SK-MEL-2): > 100 µM (inactive)
- GI50 (SR): > 100 µM (inactive)
- GI50 (NCI-H522): > 100 µM (inactive)
- GI50 (DU-145): > 100 µM (inactive)
- GI50 (786-0): > 100 µM (inactive)
- GI50 (HOP-62): > 100 µM (inactive)
- GI50 (COLO 205): > 100 µM (inactive)
- GI50 (MDA-MB-435): > 100 µM (inactive)
- GI50 (A498): > 100 µM (inactive)
- GI50 (MDA-MB-231): > 100 µM (inactive)
- GI50 (EKVX): > 100 µM (inactive)
- GI50 (NCI/ADR-RES): > 100 µM (inactive)
- GI50 (RXF 393): > 100 µM (inactive)
- GI50 (MOLT-4): > 100 µM (inactive)
- GI50 (RPMI-8226): > 100 µM (inactive)
- GI50 (CCRF-CEM): > 100 µM (inactive)
- GI50 (TK-10): > 100 µM (inactive)

SMILES: N=C(N)N/N=C(/c1ccccc1)c1ccc(O)cc1O
- GI50 (OVCAR-3): 26.9 µM (inactive)
- GI50 (OVCAR-5): 33 µM (inactive)
- GI50 (CAKI-1): 51.5 µM (inactive)
- GI50 (A549): 38.1 µM (inactive)
- GI50 (SN12C): 29.4 µM (inactive)
- GI50 (SF-539): 18.5 µM (inactive)
- GI50 (Hs-578T): 22 µM (inactive)
- GI50 (NCI-H460): 27.4 µM (inactive)
- GI50 (LOX IMVI): 34.9 µM (inactive)
- GI50 (OVCAR-4): 57 µM (inactive)
- GI50 (T47D): 45.3 µM (inactive)
- GI50 (SK-MEL-5): 25.8 µM (inactive)
- GI50 (U-251): 22.5 µM (inactive)
- GI50 (Malme-3M): 22.6 µM (inactive)
- GI50 (SF-295): 28.2 µM (inactive)
- GI50 (SK-MEL-28): 72.6 µM (inactive)
- GI50 (M14): 23 µM (inactive)
- GI50 (MDA-N): 11.7 µM (inactive)
- GI50 (SK-OV-3): 33.4 µM (inactive)
- GI50 (HT-29): 19.7 µM (inactive)
- GI50 (UACC-257): 35.6 µM (inactive)
- GI50 (IGROV-1): 25.1 µM (inactive)
- GI50 (KM12): 30.5 µM (inactive)
- GI50 (UACC-62): 30.1 µM (inactive)
- GI50 (HCC 2998): 16.9 µM (inactive)
- GI50 (PC-3): 29 µM (inactive)
- GI50 (NCI-H23): 31.8 µM (inactive)
- GI50 (BT-549): 37.5 µM (inactive)
- GI50 (SNB-19): 40.6 µM (inactive)
- GI50 (MCF7): 30.7 µM (inactive)
- GI50 (NCI-H226): 29.9 µM (inactive)
- GI50 (SNB-75): 49 µM (inactive)
- GI50 (SW-620): 36.7 µM (inactive)
- GI50 (K562): 46.3 µM (inactive)
- GI50 (UO-31): 46.1 µM (inactive)
- GI50 (HOP-92): 36.6 µM (inactive)
- GI50 (OVCAR-8): 24.6 µM (inactive)
- GI50 (SF-268): 32.6 µM (inactive)
- GI50 (HCT-15): 39.4 µM
- GI50 (ACHN): 45.9 µM (inactive)
- GI50 (HCT-116): 29 µM (inactive)
- GI50 (SK-MEL-2): 45.7 µM (inactive)
- GI50 (SR): 20.8 µM (inactive)
- GI50 (NCI-H522): 15.3 µM (inactive)
- GI50 (DU-145): 33 µM (inactive)
- GI50 (786-0): 29.2 µM (inactive)
- GI50 (HOP-62): 32 µM (inactive)
- GI50 (COLO 205): 17.5 µM (inactive)
- GI50 (MDA-MB-435): 19.1 µM (inactive)
- GI50 (A498): 21.9 µM (inactive)
- GI50 (MDA-MB-231): 45.1 µM (inactive)
- GI50 (EKVX): 22.2 µM (inactive)
- GI50 (NCI/ADR-RES): 95.3 µM (inactive)
- GI50 (RXF 393): 45 µM (inactive)
- GI50 (RPMI-8226): 30.5 µM (inactive)
- GI50 (TK-10): 31.6 µM (inactive)
